{"source": "paper PMC6912857", "about": "(Journal of Medicinal Chemistry, 2019)", "key": {"[1]": {"conditions": "cited from earlier work"}, "rats": {"system": "rats", "conditions": "cited from earlier work"}, "hH3R": {"target": "hH3R (Homo sapiens, UniProt Q9Y5N1)", "sequence (Q9Y5N1 whole entry)": "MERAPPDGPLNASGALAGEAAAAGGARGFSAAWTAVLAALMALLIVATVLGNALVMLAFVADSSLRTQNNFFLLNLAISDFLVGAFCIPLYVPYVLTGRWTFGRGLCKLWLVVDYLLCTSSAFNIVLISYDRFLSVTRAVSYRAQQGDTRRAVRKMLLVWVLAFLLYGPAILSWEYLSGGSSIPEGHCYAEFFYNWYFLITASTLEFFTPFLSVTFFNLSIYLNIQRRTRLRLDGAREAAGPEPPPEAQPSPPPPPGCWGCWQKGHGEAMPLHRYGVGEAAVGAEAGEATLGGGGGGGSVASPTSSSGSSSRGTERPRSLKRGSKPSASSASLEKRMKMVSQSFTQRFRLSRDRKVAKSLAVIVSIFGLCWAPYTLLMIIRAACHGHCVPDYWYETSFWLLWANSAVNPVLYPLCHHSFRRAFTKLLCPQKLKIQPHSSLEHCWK", "test": "CRE-luciferase reporter gene assay, hH3R expressed on HEK293T cells", "format": "cell-based", "conditions": "intrinsic activity compared to histamine"}, "Male C57Bl6 mice": {"system": "Male C57Bl6 mice", "test": "Social recognition test in mice"}, "H2R": {"target": "H2R (Homo sapiens, UniProt P25021)", "sequence (P25021 whole entry, species assumed)": "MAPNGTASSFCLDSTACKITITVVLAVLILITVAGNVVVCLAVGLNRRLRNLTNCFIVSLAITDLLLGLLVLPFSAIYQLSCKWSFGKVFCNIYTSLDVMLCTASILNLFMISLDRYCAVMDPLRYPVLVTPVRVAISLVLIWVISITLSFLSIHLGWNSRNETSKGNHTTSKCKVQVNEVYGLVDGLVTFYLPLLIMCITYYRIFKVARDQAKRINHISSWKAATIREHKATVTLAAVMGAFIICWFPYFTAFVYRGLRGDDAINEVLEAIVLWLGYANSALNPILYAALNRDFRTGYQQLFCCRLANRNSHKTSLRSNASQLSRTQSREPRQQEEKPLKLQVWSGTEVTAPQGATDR", "test": "CRE-luciferase reporter gene assay, H2R", "format": "cell-based", "conditions": "up to 10 μM"}, "H1R": {"target": "H1R (Homo sapiens, UniProt P35367)", "sequence (P35367 whole entry, species assumed)": "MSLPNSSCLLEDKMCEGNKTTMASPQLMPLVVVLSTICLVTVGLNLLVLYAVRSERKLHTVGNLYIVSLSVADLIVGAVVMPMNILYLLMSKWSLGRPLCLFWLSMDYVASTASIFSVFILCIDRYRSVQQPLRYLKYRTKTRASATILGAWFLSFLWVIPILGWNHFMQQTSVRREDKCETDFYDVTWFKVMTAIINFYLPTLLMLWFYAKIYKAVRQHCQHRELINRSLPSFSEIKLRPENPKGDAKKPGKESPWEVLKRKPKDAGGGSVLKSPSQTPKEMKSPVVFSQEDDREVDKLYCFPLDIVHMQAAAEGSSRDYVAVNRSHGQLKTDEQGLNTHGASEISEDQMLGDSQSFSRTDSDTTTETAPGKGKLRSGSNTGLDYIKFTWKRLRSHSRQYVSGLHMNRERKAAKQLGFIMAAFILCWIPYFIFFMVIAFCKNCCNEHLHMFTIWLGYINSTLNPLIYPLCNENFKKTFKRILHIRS", "test": "NFAT-luciferase reporter gene assay, H1R", "format": "cell-based", "conditions": "up to 10 μM"}, "mH4R": {"target": "T1, mH4R (Mus musculus, UniProt Q91ZY2)", "T1 sequence (Q91ZY2 1-391)": "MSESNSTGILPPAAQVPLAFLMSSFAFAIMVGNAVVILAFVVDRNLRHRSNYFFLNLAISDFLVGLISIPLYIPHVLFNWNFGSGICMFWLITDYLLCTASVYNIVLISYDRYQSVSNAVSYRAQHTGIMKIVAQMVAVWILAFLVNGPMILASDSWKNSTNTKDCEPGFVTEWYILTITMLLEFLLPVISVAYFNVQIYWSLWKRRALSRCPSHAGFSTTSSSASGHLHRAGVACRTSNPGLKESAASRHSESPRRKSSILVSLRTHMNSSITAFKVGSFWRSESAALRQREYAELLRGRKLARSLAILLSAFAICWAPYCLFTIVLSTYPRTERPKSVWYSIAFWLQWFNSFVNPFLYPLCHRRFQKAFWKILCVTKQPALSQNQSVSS", "test": "CRE-luciferase reporter gene assay, mH4R expressed on HEK293T cells", "format": "cell-based"}, "[2]": {"test": "Nephelometry / aqueous solubility", "format": "physicochemical", "conditions": "up to 100 mM concentration"}, "[3]": {"test": "Metabolic stability in mouse liver microsomes"}}, "note": "“Also recorded” adds a separate entry of the source.", "data": [{"smiles": "S=C(NC1CCCCC1)N1CCC(c2cnc[nH]2)CC1", "note": "[thioperamide]", "values": [{"measurement": "effect on memory in the social recognition test", "setting": "[1]", "value": "improve short-term memory"}]}, {"smiles": "c1ncc(CC2CCNCC2)[nH]1", "note": "[immepip]", "values": [{"measurement": "effect on memory in the social recognition test", "setting": "[1]", "value": "cause amnesia"}]}, {"smiles": "N=C(N)SCCc1cnc[nH]1", "note": "[Imetit, imetit]", "values": [{"measurement": "effect on memory in the object recognition and passive avoidance tests", "setting": "rats", "value": "memory impairments"}]}, {"smiles": "CCNC1CN(c2cc(CC)nc(N)n2)C1", "note": "[12c, 4-Ethyl-6-(3-(ethylamino)azetidin-1-yl)pyrimidin-2-amine]", "values": [{"measurement": "α (intrinsic activity)", "setting": "hH3R", "value": "~1.0"}]}, {"smiles": "CCCNC1CN(c2ccnc(N)n2)C1.O.O=C(O)/C=C/C(=O)O", "note": "[14d, 4-(3-(Propylamino)azetidin-1-yl)pyrimidin-2-amine Fumarate Hydrate]", "values": [{"measurement": "CNS / brain penetration", "setting": "Male C57Bl6 mice; indicated by effects in the in vivo social memory test, 5 mg/kg i.p., 5 mg/kg", "value": "clearly penetrating the CNS; also recorded: appreciable brain penetration"}, {"measurement": "discrimination index (DI)", "setting": "Male C57Bl6 mice; mice, 5 mg/kg i.p.", "value": "negative"}, {"measurement": "social recognition memory (discrimination of novel vs familiar mouse)", "setting": "Male C57Bl6 mice; mice, 5 mg/kg i.p. 30 min before the training session, 5 mg/kg", "value": "amnesic effects; also recorded: did not discriminate between the novel and the familiar mouse; also recorded: impairs social recognition"}, {"measurement": "exploration time of the cage during test", "setting": "Male C57Bl6 mice; mice, 5 mg/kg i.p., during test", "value": "148.3 ± 69.4", "unit": "s"}, {"measurement": "exploration time of the cage during training", "setting": "Male C57Bl6 mice; mice, 5 mg/kg i.p., during training", "value": "136.2 ± 44.1", "unit": "s"}, {"measurement": "sociability", "setting": "Male C57Bl6 mice; mice, 5 mg/kg i.p., training session", "value": "did not affect"}, {"measurement": "activation of H2R", "setting": "H2R", "value": "does not activate"}, {"measurement": "activation of H1R", "setting": "H1R", "value": "does not activate"}, {"measurement": "selectivity in potency mH3R vs mH4R", "setting": "mH4R", "value": "> 10", "unit": "fold"}, {"measurement": "microprecipitation (nephelometry)", "setting": "[2]", "value": "no microprecipitation"}, {"measurement": "slower elimination compared with the reference control verapamil", "setting": "[3]; mouse liver microsomes", "value": "more than 2 times"}, {"measurement": "half-life at 50 μM", "setting": "[3]; mouse, microsomes, pH 7.4", "value": 2.18, "unit": "h"}]}]}
